Molecules are shown by their SMILES.

One compound from patent US20230339922A1, “COVALENT EGFR INHIBITORS AND METHODS OF USE THEREOF” (DANA-FARBER CANCER INSTITUTE, INC., priority 2020, published 2023) can be followed below.

Test [1] deals with EGFR mutant L858R Ba/F3 cells. In words: Ba/F3 cell proliferation (Cell Titer Glo), EGFR L858R. It counts as cell-based, murine. The settings on record: Mus musculus, BaF3, Ba/F3 cells with EGFR L858R, 72 hours exposure, read-out: L BaF3. The text has this: (§1) The EGFR mutant L858R Ba/F3 cells have been previously described (Zhou, W., et al. Nature 462, 2009, 1070-1074). The EGFR C797S and C775S mutations were introduced via site directed mutagenesis using the Quick Change Site-Directed Mutagenesis kit into a vector containing EGFR […] mutation (Stratagene; La Jolla, CA) according to the manufacturer’s instructions. All constructs were confirmed by DNA sequencing. The constructs were then shuttled into the retroviral vector JP1540 by either using the Cre-recombination system (Agilent Technologies, Santa Clara, CA) or the In-fusion HD Cloning kit (Takara Bio USA, Inc.; Mountain view, CA). Ba/F3 cells were then infected with retrovirus per standard protocols, as described previously (Zhou, et al, Nature 2009). […]
(§2) Growth and inhibition of growth was assessed by the Cell Titer Glo assay (Promega, Madison, WI) and was performed according to the manufacturer’s instructions. The Cell Titer Glo assay is a luminescence-based method used to determine the number of viable cells based on quantitation of the ATP present, which is directly proportional to the amount of metabolically active cells present. Ba/F3 cells of different EGFR genotypes were exposed to compounds for 72 hours and the number of cells used per experiment was determined empirically as has been previously established (Zhou, et al., Nature 2009). […]
(ATP-based viability assays read luminescence as a measure of living cells.)

Test [2] concerns EGFR L858R/C797S Ba/F3 cells. In words: Ba/F3 cell proliferation (Cell Titer Glo), EGFR L858R/C797S. It counts as cell-based, murine. As to conditions: Mus musculus, BaF3, Ba/F3 cells with EGFR L858R/C797S, 72 hours exposure, read-out: L/C797S.
From the text: as §1, §2

`C=CC(=O)Nc1cc(C(=O)Nc2nc3cccc(C)c3n2[C@@H]2CCCCN(C(=O)C=C)C2)cs1` [compound 001]: the figures for the EC50 in test [1] and in test [2] were 6 nM and 334 nM, respectively.
